Counter-ions that a name gives are not always drawn. Where a SMILES comes first, the peptide text is derived from it. Bridges are numbered along the chain shown (N, C = ends). [ ]: non-standard residue; d: D form. The star is where a group is joined. ξ: configuration not given here. ξβ3hGly(cHex) = NC(CC(=O)*)C1CCCCC1; Butanoyl(3ξ-OH) = CC(O)CC(=O)*; Thr(3ξ) = CC(O)[C@H](N)C(=O)O; Dab = NCC[C@H](N)C(=O)O; Ahp = NCCCCCCC(=O)O; βAla = NCCC(=O)O
Tests used:
K. pneumoniae NCTC7427 = assay: MIC susceptibility testing, broth microdilution in CaMHB; format: cell-based, Klebsiella pneumoniae
Method in brief: (§1)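 Cation-adjusted Mueller-Hinton broth microdilution, run in duplicate. Inoculum from overnight 37 °C cultures subcultured to OD600 0.2-0.3 […], then diluted 100-fold. Different CaMHB batches from the earlier data set.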

K. pneumoniae ATCC 4352 = assay: as above; format: cell-based, Klebsiella pneumoniae
Method in brief: as §1

[1] = system: K. pneumoniae ATCCBAA-1706; assay: as above; format: cell-based, Klebsiella pneumoniae; settings: Table 4
Method in brief: as §1

K. pneumoniae NCTC8172 = assay: as above; format: cell-based, Klebsiella pneumoniae
Method in brief: as §1

E. coli ATCC700928 = assay: as above; format: cell-based, Escherichia coli
Method in brief: as §1

E. coli NCTC9001 = assay: as above; format: cell-based, Escherichia coli
Method in brief: as §1

E. coli NCTC12900 = assay: as above; format: cell-based, Escherichia coli
Method in brief: as §1

E. coli ATCC25922 = assay: as above; format: cell-based, Escherichia coli
Method in brief: as §1

[2] = Pharmacokinetic and urinary clearance studies in rats; format: in vivo; settings: male, Sprague Dawley, rat, in vivo, iv, 1 mg/kg
Experimental: Drug solutions were prepared at 4 mg/mL in Normal Saline and the pH adjusted to 6-7 by adding the appropriate volume of 0.1 M H2SO4 or 4.2% NaHCO3. The solutions were filter-sterilized and stored at −80° C. before use. On the day of the experiment, drug solutions were diluted to 1 mg/mL with sterile Normal Saline.
Groups of 3 male Sprague Dawley rats were acclimatised for a minimum of 4 days before the study. Rats were anesthetized using isofluorane and a cannula was inserted into the jugular vein. One day after surgery, rats were dosed with an intravenous bolus injection of the solution at 1 mg/kg through the cannula, followed by washing with Normal Saline. Blood was collected manually through the cannula prior to administration of the compound and at 0.08, 0.25, 0.5, 1, 3, 6, 8 and 24 h thereafter. Plasma was harvested by centrifugation immediately after blood collection. Twenty-four hour urine samples were collected prior to and after administration of the compound in 0-4 h, 4-6 h, and 6-24 h intervals. Plasma and urine samples were frozen at −20° C.
Determination of the plasma and urine concentrations of the drug was performed by Liquid Chromatography Mass Spectrometry (LC-MS/MS). Before analysis the plasma and urine samples were prepared as follows. Plasma samples were thawed on the day of analysis and mixed with 3 volumes of acetonitrile containing 0.1% (v/v) formic acid and 100 ng/mL of internal standard. After centrifugation, supernatants were transferred to a 96-well plate and diluted 1:1 with water ready for analysis by LC-MS/MS. Urine samples were purified by solid-phase extraction (SPE) on Oasis HLB cartridges (Waters, UK) eluting with 100% methanol. An aliquot was transferred to a 96 well plate and diluted 1:1 with water before addition of internal standard solution, ready for analysis by LC-MS/MS.
The pharmacokinetic parameters were determined by non-compartmental analysis using WinNonLin v5.3. The urinary recovery was recorded as the percentage of intact drug recovered in the urine for the first 24 h after injection.

A. baumannii ATCC19606 = assay: MIC susceptibility testing, broth microdilution in CaMHB; format: cell-based, Acinetobacter baumannii
Method in brief: as §1

A. baumannii NCTC13423 = assay: as above; format: cell-based, Acinetobacter baumannii
Method in brief: as §1

A. baumannii NCTC7844 = assay: as above; format: cell-based, Acinetobacter baumannii
Method in brief: as §1

A. baumannii ATCCBAA-747 = assay: as above; format: cell-based, Acinetobacter baumannii
Method in brief: as §1

P. aeruginosa ATCC27853 = assay: as above; format: cell-based, Pseudomonas aeruginosa
Method in brief: as §1

P. aeruginosa ATCC 9721 = assay: as above; format: cell-based, Pseudomonas aeruginosa
Method in brief: as §1

P. aeruginosa ATCC10145 = assay: as above; format: cell-based, Pseudomonas aeruginosa
Method in brief: as §1

[3] = system: P. aeruginosa ATCCCRM-9027; assay: as above; format: cell-based, Pseudomonas aeruginosa
Method in brief: as §1

[4] = set-up: species or system rats; settings: rat, in vivo, 8 mg/kg
Experimental: Colistin and the example compounds were prepared in saline. Compounds were introduced via the jugular canula twice a day 7 hours apart for seven days. […] The dose regimen is set out in Table 8 below.

HK-2 cell line = settings: 24 h incubation, resazurin reduction; Table 7A; footnote c: solubility issues noted at top concentration
Experimental: The renal cell toxicity of the compounds was assessed in an in vitro assay using the HK-2 cell line, an immortalized proximal tubule cell line derived from a normal human kidney. The endpoint to describe the toxicity of the compounds was the reduction of resazurin correlating with the metabolic activity of the cells.
Cells were cultured in 150 cm^2 flasks in 25 mL supplemented KSF (with 5 ng/mL EGF and 50 μg/mL BPE). Cells were maintained at 70% confluence with a maximum of 25 passages. Day 1: Media was removed and cells were washed with 10 ml DPBS. […] After 1 to 2 minutes incubation, 14 ml media was added to the flask to inactivate the trypsin. The cell suspension was transferred to a centrifuge tube and the cells pelleted at 1000 rpm for 6 minutes. The cell pellet was then resuspended in fresh media supplemented with EGF and BPE. […] 7500 cells were dispensed in each well in a volume of 160 μl and incubated at 37° C. for 24 h.
Day 2: Test compounds were prepared directly into the media. […] The microtiter plates were removed from the incubator and the media replaced with 100 μl of the dilutions of the compound solution. Every set of concentration was done in triplicate, and positive and negative controls were added to each plate. The plates were then incubated for 24 h at 37° C. with 5% CO2 in a humidified atmosphere.
Day 3: The reagent containing the resazurin (CellTiter-Blue, Promega) was diluted in PBS (1:4) and added at 20% (v/v) to each well. The plates were then incubated at 37° C. for 2 h before the fluorescent reduction product was detected.
Media only background values were subtracted before the data was analysed using GraphPad Prism. Compound concentration values were plotted as log values to enable a dose-response curve to be fitted and IC50 values determined (Table 7).
The renal cell toxicity of the additional example compounds was assessed in an in vitro assay using the HK-2 cell as described in the example above.

[5] = K. pneumoniae ATCC 4352, Table 4
[6] = P. aeruginosa ATCC 9721, Table 4
[7] = P. aeruginosa ATCCCRM-9027, Table 4
[8] = Table 4A, different batches of cation-adjusted Muller-Hinton broth
[9] = K. pneumoniae ATCC4352, Table 4A, different batches of cation-adjusted Muller-Hinton broth

| SMILES | MIC (K. pneumoniae NCTC7427; Table 4) [micrograms/mL] | MIC (K. pneumoniae ATCC 4352; [5]) [micrograms/mL] | MIC [1] [micrograms/mL] | MIC (K. pneumoniae NCTC8172; Table 4) [micrograms/mL] | MIC (E. coli ATCC700928; Table 4) [micrograms/mL] | MIC (E. coli NCTC12900; Table 4) [micrograms/mL] | MIC (E. coli ATCC25922; Table 4) [micrograms/mL] | MIC (A. baumannii ATCC19606; Table 4) [micrograms/mL] | MIC (A. baumannii NCTC13423; Table 4) [micrograms/mL] | MIC (A. baumannii NCTC7844; Table 4) [micrograms/mL] | MIC (A. baumannii ATCCBAA-747; Table 4) [micrograms/mL] | MIC (P. aeruginosa ATCC27853; Table 4) [micrograms/mL] | MIC (P. aeruginosa ATCC 9721; [6]) [micrograms/mL] | MIC (P. aeruginosa ATCC10145; Table 4) [micrograms/mL] | MIC [3, 7] [micrograms/mL] | MIC (K. pneumoniae ATCC 4352; [9]) [micrograms/mL] | MIC (E. coli ATCC25922; [8]) [micrograms/mL] | MIC (P. aeruginosa ATCC27853; [8]) [micrograms/mL] | IC50 HK-2 cells (HK-2 cell line) | MIC (A. baumannii ATCC19606; [8]) [micrograms/mL] | also measured |
| --- | --- | --- | --- | --- | --- | --- | --- | --- | --- | --- | --- | --- | --- | --- | --- | --- | --- | --- | --- | --- | --- |
| CC(C)C[C@@H]1NC(=O)[C@@H](Cc2ccccc2)NC(=O)[C@H](CCN)NC(=O)[C@@H](NC(=O)[C@H](CCN)NC(=O)[C@@H](NC(=O)CCN)C(C)O)CCNC(=O)[C@H](C(C)O)NC(=O)[C@H](CCN)NC(=O)[C@H](CCN)NC1=O (stereo partly drawn) [Example 4, 3-Aminopropanoyl Polymyxin B Nonapeptide, Sulphate Salt] (H-[βAla][Thr(3ξ)][Dab][Dab][Dab][dF]L[Dab][Dab][Thr(3ξ)]; lactam 4-C) | 0.06 | 0.125 | 0.25 | 2 | 0.06 | 1 | 2 | 1 | 1 | 4 | 1 | 0.125 | 0.25 | 0.5 | 0.25 |  |  |  |  |  | MIC (E. coli NCTC9001; Table 4): 0.25 micrograms/mL; AUC(0-inf) [2]: 2030 ng·h/mL; Cmax [2]: 2520 ng/mL; Vd [2]: 0.69 L/kg; clearance [2]: 8.2 mL/min/kg; half-life [2]: 1.33 h |
| CC(C)C[C@@H]1NC(=O)[C@@H](Cc2ccccc2)NC(=O)[C@H](CCN)NC(=O)[C@@H](NC(=O)[C@H](CCN)NC(=O)[C@@H](NC(=O)CC(N)C2CCCCC2)C(C)O)CCNC(=O)[C@H](C(C)O)NC(=O)[C@H](CCN)NC(=O)[C@H](CCN)NC1=O (stereo partly drawn) [Example 14, [3(R,S)-3-Amino-3-cyclohexanepropanoyl] Polymyxin B Nonapeptide, Sulphate Salt] ({ξβ3hGly(cHex)}-[Thr(3ξ)][Dab][Dab][Dab][dF]L[Dab][Dab][Thr(3ξ)]; lactam 3-C) | 0.25 | 1 | 0.25 | 1 | 0.25 | 0.5 | 0.5 | 0.5 | 0.06 | 0.5 | 0.5 | 0.5 | 0.25 | 0.25 | 0.25 | 0.5 | 2 | 0.25 |  |  | MIC (K. pneumoniae NCTC7427; [8]): 0.5 micrograms/mL; MIC (K. pneumoniae NCTC8172; [8]): >32 micrograms/mL; MIC (E. coli ATCC700928; [8]): 2 micrograms/mL; MIC (E. coli NCTC9001; [8]): 4 micrograms/mL; MIC (E. coli NCTC12900; [8]): 4 micrograms/mL; levels of the renal biomarker NAG in urine compared to Colistin at the same dose regimen [4]: significantly reduced levels; levels of the renal biomarker albumin in urine compared to Colistin at the same dose regimen [4]: significantly reduced levels; levels of the renal biomarker cystatin C in urine compared to Colistin at the same dose regimen [4]: significantly reduced levels; MIC (A. baumannii NCTC13423; [8]): 0.125 micrograms/mL; MIC (A. baumannii NCTC7844; [8]): 0.5 micrograms/mL; MIC (A. baumannii ATCCBAA-747; [8]): 0.5 micrograms/mL; MIC (P. aeruginosa ATCC 9721; P. aeruginosa ATCC9721, Table 4A, different batches of cation-adjusted Muller-Hinton broth): 0.25 micrograms/mL; MIC (P. aeruginosa ATCC10145; [8]): 0.5 micrograms/mL; MIC ([3]; P. aeruginosa AATCCRM 9027, Table 4A, different batches of cation-adjusted Muller-Hinton broth): 0.125 micrograms/mL |
| CC(C)C[C@@H]1NC(=O)[C@@H](Cc2ccccc2)NC(=O)[C@H](CCN)NC(=O)[C@@H](NC(=O)[C@H](CCN)NC(=O)[C@@H](NC(=O)CCCCCCN)C(C)O)CCNC(=O)[C@H](C(C)O)NC(=O)[C@H](CCN)NC(=O)[C@H](CCN)NC1=O (stereo partly drawn) [Example 19, 7-Aminoheptanoyl polymyxin B nonapeptide] (H-[Ahp][Thr(3ξ)][Dab][Dab][Dab][dF]L[Dab][Dab][Thr(3ξ)]; lactam 4-C) |  |  |  |  |  |  |  |  |  |  |  |  |  |  |  | 2 | 1 | 0.25 | 157^c μg/mL | 16 |  |
| CC(C)C[C@@H]1NC(=O)[C@@H](Cc2ccccc2)NC(=O)[C@H](CCN)NC(=O)[C@@H](NC(=O)[C@H](CCN)NC(=O)[C@@H](NC(=O)CC(C)O)C(C)O)CCNC(=O)[C@H](C(C)O)NC(=O)[C@H](CCN)NC(=O)[C@H](CCN)NC1=O (stereo partly drawn) [Example 22, 3-(R,S)-3-Hydroxybutanoyl polymyxin B nonapeptide] ({Butanoyl(3ξ-OH)}-[Thr(3ξ)][Dab][Dab][Dab][dF]L[Dab][Dab][Thr(3ξ)]; lactam 3-C) |  |  |  |  |  |  |  |  |  |  |  |  |  |  |  | 8 | 4 | 0.5 | 500^c μg/mL | >32 |  |
